Measured values reported in patent US7320867B2, “Linker compound, ligand, and producing method thereof” (Japan Science and Technology Agency, priority 2000, dated 2008).

Tests used:
[1] = biological target: bovine serum albumin (BSA) (Bos taurus, UniProt P02769); assay: SPR examination of nonspecific (hydrophobic) interaction between ligand-introduced chip and protein; type: binding; settings: BSA 1 mg/mL in PBS pH 7.4, 60 μL at 15 μL/min, 25° C.
[2] = biological target: recombinant von Willebrand's Factor (rvWF) (Homo sapiens, UniProt P04275); assay: SPR measurement of binding between ligand-introduced chip and rvWF; settings: for Kd: read-out: Dissociation constant KD
Chain of recombinant von Willebrand's Factor (rvWF) (P04275 23-2813): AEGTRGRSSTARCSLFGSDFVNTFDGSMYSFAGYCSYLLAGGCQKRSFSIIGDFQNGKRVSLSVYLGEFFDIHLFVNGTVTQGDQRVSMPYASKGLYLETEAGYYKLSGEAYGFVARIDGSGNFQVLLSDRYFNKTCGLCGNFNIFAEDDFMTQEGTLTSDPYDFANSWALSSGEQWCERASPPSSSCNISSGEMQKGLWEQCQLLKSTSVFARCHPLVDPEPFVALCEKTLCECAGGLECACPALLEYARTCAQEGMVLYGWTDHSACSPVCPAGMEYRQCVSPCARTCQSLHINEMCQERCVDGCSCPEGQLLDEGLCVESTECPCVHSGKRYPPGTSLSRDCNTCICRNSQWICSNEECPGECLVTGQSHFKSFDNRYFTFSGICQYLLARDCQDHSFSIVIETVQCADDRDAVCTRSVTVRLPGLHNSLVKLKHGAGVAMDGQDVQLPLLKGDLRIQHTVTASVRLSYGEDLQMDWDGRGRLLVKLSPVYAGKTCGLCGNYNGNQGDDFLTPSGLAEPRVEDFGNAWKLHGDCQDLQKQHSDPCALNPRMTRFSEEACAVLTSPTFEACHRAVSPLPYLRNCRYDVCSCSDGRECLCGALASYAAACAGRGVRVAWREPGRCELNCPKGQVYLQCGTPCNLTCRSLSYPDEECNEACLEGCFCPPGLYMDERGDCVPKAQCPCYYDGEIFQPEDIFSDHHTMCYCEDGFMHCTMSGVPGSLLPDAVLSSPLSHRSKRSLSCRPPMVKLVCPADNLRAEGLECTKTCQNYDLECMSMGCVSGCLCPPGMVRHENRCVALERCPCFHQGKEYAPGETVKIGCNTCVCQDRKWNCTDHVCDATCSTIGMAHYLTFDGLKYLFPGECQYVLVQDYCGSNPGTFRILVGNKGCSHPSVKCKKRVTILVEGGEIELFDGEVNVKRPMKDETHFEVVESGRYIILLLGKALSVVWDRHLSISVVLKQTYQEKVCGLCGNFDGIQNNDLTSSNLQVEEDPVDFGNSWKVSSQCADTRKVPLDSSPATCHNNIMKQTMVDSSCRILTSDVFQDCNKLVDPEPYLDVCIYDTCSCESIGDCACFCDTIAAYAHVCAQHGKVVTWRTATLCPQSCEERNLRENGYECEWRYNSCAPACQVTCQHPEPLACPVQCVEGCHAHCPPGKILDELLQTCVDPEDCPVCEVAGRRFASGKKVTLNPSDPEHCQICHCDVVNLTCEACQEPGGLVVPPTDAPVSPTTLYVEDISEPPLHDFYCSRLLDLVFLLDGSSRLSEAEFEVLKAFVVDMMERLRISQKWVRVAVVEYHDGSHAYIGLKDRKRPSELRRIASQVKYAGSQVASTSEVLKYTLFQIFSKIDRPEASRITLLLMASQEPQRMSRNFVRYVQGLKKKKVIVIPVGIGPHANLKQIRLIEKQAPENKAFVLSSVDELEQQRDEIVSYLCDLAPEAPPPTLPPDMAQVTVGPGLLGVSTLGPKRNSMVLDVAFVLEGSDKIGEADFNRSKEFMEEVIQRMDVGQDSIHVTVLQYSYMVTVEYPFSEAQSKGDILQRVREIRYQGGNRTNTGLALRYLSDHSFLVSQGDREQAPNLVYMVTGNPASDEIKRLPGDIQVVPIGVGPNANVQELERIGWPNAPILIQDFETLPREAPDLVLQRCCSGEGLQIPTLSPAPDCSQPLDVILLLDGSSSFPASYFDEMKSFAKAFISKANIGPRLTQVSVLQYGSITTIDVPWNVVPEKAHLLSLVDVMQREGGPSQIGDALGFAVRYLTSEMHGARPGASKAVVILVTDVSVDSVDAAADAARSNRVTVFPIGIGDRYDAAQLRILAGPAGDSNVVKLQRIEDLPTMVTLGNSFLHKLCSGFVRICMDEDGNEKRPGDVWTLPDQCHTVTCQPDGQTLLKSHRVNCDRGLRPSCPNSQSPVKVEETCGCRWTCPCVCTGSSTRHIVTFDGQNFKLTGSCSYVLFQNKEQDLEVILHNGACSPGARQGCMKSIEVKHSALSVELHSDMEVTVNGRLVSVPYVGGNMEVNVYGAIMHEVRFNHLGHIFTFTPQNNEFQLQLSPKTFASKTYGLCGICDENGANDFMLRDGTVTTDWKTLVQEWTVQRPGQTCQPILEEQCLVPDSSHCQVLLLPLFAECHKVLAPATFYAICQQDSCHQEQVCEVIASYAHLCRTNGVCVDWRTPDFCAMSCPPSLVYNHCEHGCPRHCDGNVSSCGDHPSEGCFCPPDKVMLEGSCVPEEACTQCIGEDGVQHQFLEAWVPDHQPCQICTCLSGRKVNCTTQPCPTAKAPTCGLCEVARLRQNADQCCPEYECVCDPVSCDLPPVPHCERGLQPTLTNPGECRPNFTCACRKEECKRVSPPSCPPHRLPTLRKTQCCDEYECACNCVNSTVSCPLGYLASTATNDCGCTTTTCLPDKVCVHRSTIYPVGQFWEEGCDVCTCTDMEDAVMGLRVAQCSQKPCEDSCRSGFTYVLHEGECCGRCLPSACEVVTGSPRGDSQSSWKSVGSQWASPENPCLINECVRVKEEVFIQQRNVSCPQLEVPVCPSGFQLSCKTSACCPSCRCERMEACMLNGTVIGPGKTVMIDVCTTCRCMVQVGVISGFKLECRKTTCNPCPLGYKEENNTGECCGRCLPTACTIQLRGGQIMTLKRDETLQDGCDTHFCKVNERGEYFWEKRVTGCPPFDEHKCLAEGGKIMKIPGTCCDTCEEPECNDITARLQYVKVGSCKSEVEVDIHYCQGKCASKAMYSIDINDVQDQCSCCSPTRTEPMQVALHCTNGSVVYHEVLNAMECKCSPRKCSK
From the text: That is, by the procedure described below, a ligand (Compound 14) was immobilized on a surface of a glass substrate with a thin gold film deposited thereon, and the binding behavior of Compound 14 with a recombinant von Willebrand's Factor (hereinafter abbreviated to rvWF), which is a heparin binding protein, was observed.
First, a sensor chip (manufactured by Japan Laser Electronics Co., Ltd.), prepared by depositing a gold film of 50 nm thick on a glass substrate of 13 mm×20 mm×0.7 mm, was placed in a UV ozone washer (product name: NL-UV253, Japan Laser Electronics Co., Ltd.), and was exposed to ultraviolet rays for 20 minutes so as to wash the gold surface of the sensor chip with ozone. Subsequently, the sensor chip was mounted on a Teflon™ cell holder in a cell. The cell, to which 50 μL of a methanol solution containing 0.1 mM of Compound 14 was added, was sealed and then gently shaken overnight at room temperature with a Bio Dancer (product name, New Brunswick Scientific Co., Ltd.). Thereafter, the cell was washed six times with 100 μL of methanol, and the sensor chip was removed from the Teflon™ cell holder. The removed sensor chip was then immersed in a Petri dish full of methanol and washed twice by gently shaking the Petri dish. Thereafter, the sensor chip was washed with water and methanol in this order in the same manner as described above, so as to obtain a ligand-introduced chip (ligand carrier). The ligand carrier was air-dried and then mounted on a sensor chip cartridge (glass prism) of a surface plasmon resonance apparatus SPR670 (product name, Japan Laser Electronics Co., Ltd.).
Except that an rvWF solution was used instead of the BSA solution (5-2) injected onto the ligand-introduced chip (obtained in 5-1), the same procedure as in (5-2) was carried out to inject the rvWF solution onto the surface of the ligand-introduced chip. It is to be noted that rvWF was dissolved in the running buffer so as to prepare an rvWF solution with a concentration of 125 nM to 1600 nM.
The rvWF solution was injected onto the surface of the ligand-introduced chip at varying concentrations, and a response (RU; response unit) based on bonding between Compound 14 and rvWF was measured as a function of injection time (sec) of the rvWF solution using the surface plasmon resonance apparatus. […]
In addition, a dissociation constant (KD), a binding rate constant (ka), and a dissociation rate constant (kd) were calculated, using software attached to the surface plasmon resonance apparatus (SPR670), based on a result (FIG. 1) yielded by observing the binding behavior of Compound 14 (ligand) with rvWF.
Then, except that the Compound 25 was used instead of the Compound 14, the procedure in (5-1) of Example 5 was followed to obtain a ligand-introduced chip. […] Thereafter, according the procedure in (5-3) of Example 5, the rvWF solution was injected onto the surface of the ligand-introduced chip, and changes in resonance angle as a function of injection time of the rvWF solution was measured using the surface plasmon resonance apparatus, so as to examine the binding behavior of Compound 25 with rvWF.
In addition, a dissociation constant (KD), a binding rate constant (ka), and a dissociation rate constant (kd) were calculated, based on FIG. 2, according to the procedure in (5-3) of Example 5.

[3] = ligand immobilized on gold sensor chip, rvWF 125 nM to 1600 nM in PBS pH 7.4, 25° C., calculated with SPR670 software

Chain of bovine serum albumin (BSA) (P02769 25-607): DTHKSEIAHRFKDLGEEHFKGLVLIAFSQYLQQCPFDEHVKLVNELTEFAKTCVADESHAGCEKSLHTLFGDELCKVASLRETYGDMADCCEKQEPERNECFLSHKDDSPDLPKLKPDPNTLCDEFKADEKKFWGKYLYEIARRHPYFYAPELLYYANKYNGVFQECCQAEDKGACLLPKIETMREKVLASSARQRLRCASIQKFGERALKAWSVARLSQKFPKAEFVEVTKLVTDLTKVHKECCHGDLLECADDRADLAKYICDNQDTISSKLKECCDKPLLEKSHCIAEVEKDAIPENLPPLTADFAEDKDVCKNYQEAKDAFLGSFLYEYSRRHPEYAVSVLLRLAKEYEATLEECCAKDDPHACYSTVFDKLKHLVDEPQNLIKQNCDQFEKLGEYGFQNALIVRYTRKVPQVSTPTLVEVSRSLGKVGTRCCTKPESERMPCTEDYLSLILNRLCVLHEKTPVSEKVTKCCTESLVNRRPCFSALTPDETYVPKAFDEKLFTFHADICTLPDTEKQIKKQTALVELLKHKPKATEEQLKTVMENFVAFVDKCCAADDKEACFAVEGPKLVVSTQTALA

| Compound | Nonspecific interaction based on hydrophobic interaction (resonant angle change) [1] | Affinity for rvWF compared with ligand-introduced chip using Compound 25 ([2]; comparison from Table 1) | Kd [2, 3] [nM] | kon ([2]; ligand immobilized on gold sensor chip, rvWF 125 nM to 1600 nM in PBS pH 7.4, 25° C., calculated with SPR670 software, read-out: Binding rate constant ka) [M⁻¹ s⁻¹] | koff ([2]; ligand immobilized on gold sensor chip, rvWF 125 nM to 1600 nM in PBS pH 7.4, 25° C., calculated with SPR670 software, read-out: Dissociation rate constant kd) [s⁻¹] |
| --- | --- | --- | --- | --- | --- |
| COC1C(COS(=O)(=O)O)OC(OC2C(C(=O)O)OC(OCC(O)C(O)C(O)C(O)CNc3cccc(NC(=O)CCC(CCC(=O)Nc4cccc(NCC(O)C(O)C(O)C(O)COC5OC(C(=O)O)C(OC6OC(COS(=O)(=O)O)C(OC)C(O)C6NS(=O)(=O)O)C(O)C5OS(=O)(=O)O)c4)(CCC(=O)Nc4cccc(NCC(O)C(O)C(O)C(O)COC5OC(C(=O)O)C(OC6OC(COS(=O)(=O)O)C(OC)C(O)C6NS(=O)(=O)O)C(O)C5OS(=O)(=O)O)c4)NC(=O)CNC(=O)CCCCC4CCSS4)c3)C(OS(=O)(=O)O)C2O)C(NS(=O)(=O)O)C1O (stereo not shown) [Compound 14] | almost no resonant angle change | higher affinity for rvWF | 1200 |  |  |
| COC1C(COS(=O)(=O)O)OC(OC2C(C(=O)O)OC(OCC(O)C(O)C(O)C(O)CNc3cccc(NC(=O)CCCCC4CCSS4)c3)C(OS(=O)(=O)O)C2O)C(NS(=O)(=O)O)C1O (stereo not shown) [Compound 25] | no nonspecific interaction |  | 2600 | 8380 | 0.0219 |
